Structures are written as SMILES.

What all share (assay type): cell-based
One assay concerns RS4;11-BCL-2 F104L cells. The assay can be described thus: Cell proliferation assay, engineered RS4;11 cells stably overexpressing BCL-2 F104L (MTS, 168 h). The conditions noted are these: Homo sapiens, read-out: RS4, 11 BCL2-F104L. In a few lines: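 Proliferation read-out: MTS for exactly 2 h, then absorbance at 490 nm, with IC50 derived from the fit. Before this, engineered RS4;11 lines (BCL-2 G101V, F104L; 5000 cells/well) were exposed 168 h at 37 °C to serially diluted compound, final 1.4–10000 nM.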

The next assay concerns RS4;11-BCL-2 G101V cells. The assay can be described thus: Cell proliferation assay, engineered RS4;11 cells stably overexpressing BCL-2 G101V (MTS, 168 h). The conditions noted are these: Homo sapiens, RS4-11, 168 h, read-out: RS4, 11 BCL2- G101V. As to the method:
MTS testing kit was purchased from Promega (Madison, Wis., USA). The RPMI-1640, Fetal bovine serum and Penicillin-Streptomycin were purchased from BI (Biological Industries, Beit Haemek, Israel). Puromycin was purchased from Beyotime (shanghai, China). Dimethyl sulfoxide (DMSO) was purchased from Sigma (St. Louis, Mo., USA). RS4;1l-BCL-2 G101V and RS4;11-BCL-2 F104L cells were cultured in RPM11640 supplemented with 1 ug/mL puromycin, 100 U/mL Penicillin-Streptomycin and 10% FBS.
To investigate whether a compound is able to inhibit the activity of BCL-2 mutation in cells, a mechanism-based assay using engineered cell lines stably overexpressing BCL-2 mutation ([…] and […]) was developed. In this assay, the inhibition of BCL-2 mutation was reflected by the inhibition of cell proliferation of RS4;11-BCL-2 G101V and RS4;11-BCL-2 F104L cells. Cells were plated into 96-well plates at optimized cell density (RS4;11-BCL-2 G101V: 5000 cells/well; RS4;11-BCL-2 F104L: 5000 cells/well). Plates were incubated at 37° C., with 5% CO2 for 4 h. Compounds were serially diluted to the final-concentrations of 10000, 3333.3, 1111.1, 370.4, 123.5, 41.2, 13.7, 4.6 and 1.4 nM and added to the plates. Plates were incubated at 37° C., with 5% CO2 for 168 h. 20 μl MTS was added into each well and the plates were incubated at 37° C., with 5% CO2 exactly for 2 h. The absorbance was measured by a microplate reader at 490 nm. IC50 values were calculated using GraphPad Prism 5.0 software.

In another assay the test system is Toledo cells. The experiment in a line: Cell proliferation assay, Toledo cells (MTS, 72 h). The conditions noted are these: Homo sapiens, Toledo cells, MTS, read-out: Toledo IC50. In a few lines:
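Toledo cells (30000/well, RPMI-1640 with 10% FBS) were preincubated for 4 h. They were then exposed to nine compound concentrations from 10000 to 1.5 nM for 72 h at 37 °C, 5% CO2. MTS was added for 2 h and absorbance read at 490 nm to give IC50.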

`CC(C)c1ccccc1[C@@H]1CCCN1C1CC2(CCN(c3ccc(C(=O)NS(=O)(=O)c4cc5c(c([N+](=O)[O-])c4)N[C@@H]([C@H]4CC[C@](C)(O)CC4)CO5)c(Oc4cnc5[nH]cc(F)c5c4)c3)CC2)C1` (single isomer, unassigned) [Example D-7, 2-((3-fluoro-1H-pyrrolo[2,3-b]pyridin-5-yl)oxy)-N-(((S)-3-((1r,4S)-4-hydroxy-4-methylcyclohexyl)-5-nitro-3,4-dihydro-2H-benzo[b] [1,4]oxazin-7-yl)sulfonyl)-4-(2-((R or S)-2-(2-isopropylphenyl)pyrrolidin-1-yl)-7-azaspiro[3.5]nonan-7-yl)benzamide]: the values for the IC50 in the assay with RS4;11-BCL-2 F104L cells, in the assay with RS4;11-BCL-2 G101V cells and with Toledo cells were 14 nM, 1 nM and 1 nM, respectively.

With `CCOc1nc2[nH]cc(F)c2cc1Oc1cc(N2CCC3(CC2)CN([C@H]2CCC[C@H]2c2ccccc2C(C)C)C3)ccc1C(=O)NS(=O)(=O)c1cnc(NC[C@H]2CC[C@](C)(O)CC2)c([N+](=O)[O-])c1` (relative stereo) [Example A-153, 2-((6-ethoxy-3-fluoro-1H-pyrrolo[2,3-b]pyridin-5-yl)oxy)-N-((6-(((1r,4r)-4-hydroxy-4-methylcyclohexyl)methyl)amino)-5-nitropyridin-3-yl) sulfonyl)-4-(2-((1S,2S or 1R,2R)-2-(2-isopropylphenyl)cyclo-pentyl)-2,7-diazaspiro[3.5]nonan-7-yl) benzamide], the IC50 was 6 nM in the assay on RS4;11-BCL-2 F104L cells, 25 nM in the assay with RS4;11-BCL-2 G101V cells and 1 nM in the assay on Toledo cells.

`CC(C)c1ccccc1[C@@H]1CCCN1C1CC2(CCN(c3ccc(C(=O)NS(=O)(=O)c4cc5c(c([N+](=O)[O-])c4)N[C@@H]([C@H]4CC[C@](C)(O)CC4)CO5)c(Oc4cc5cc[nH]c5nc4OC[C@H]4COCCN4)c3)CC2)C1` (single isomer, unassigned) [Example D-216, N-(((S)-3-((1r,4S)-4-hydroxy-4-methylcyclohexyl)-5-nitro-3,4-dihydro-2H-benzo[b][1,4]oxazin-7-yl)sulfonyl)-4-(2-((R or S)-2-(2-isopropylphenyl)pyrrolidin-1-yl)-7-azaspiro[3.5]nonan-7-yl)-2-((6-(((R)-morpholin-3-yl)methoxy)-1H-pyrrolo[2,3-b]pyridin-5-yl)oxy)benzamide]: the IC50 in the assay with RS4;11-BCL-2 F104L cells, in the assay on RS4;11-BCL-2 G101V cells and with Toledo cells was 1 nM each time.

As for `CC(C)c1ccccc1[C@@H]1CCC[C@@H]1N1CC2(CCN(c3ccc(C(=O)NS(=O)(=O)c4cnc(NC[C@H]5CC[C@](C)(O)CC5)c([N+](=O)[O-])c4)c(Oc4cc5c(F)c[nH]c5nc4Cl)c3)CC2)C1` (single isomer, unassigned) [Example A-151, 2-((6-chloro-3-fluoro-1H-pyrrolo[2,3-b]pyridin-5-yl)oxy)-N-((6-((((1r,4r)-4-hydroxy-4-methylcyclohexyl)methyl)amino)-5-nitropyridin-3-yl)sulfonyl)-4-(2-((1S,2S or 1R,2R)-2-(2-isopropylphenyl)cyclo-pentyl)-2,7-diazaspiro[3.5]nonan-7-yl)_ benzamide], the IC50 in the assay with RS4;11-BCL-2 F104L cells was found to be 1 nM; in the assay on RS4;11-BCL-2 G101V cells, 3 nM; with Toledo cells, 1 nM.

`CC(C)c1ccccc1[C@@H]1CCCN1C1CC2(CCN(c3ccc(C(=O)NS(=O)(=O)c4cc5c(c([N+](=O)[O-])c4)N[C@@H]([C@H]4CC[C@](C)(O)CC4)CO5)c(Oc4cc5cc[nH]c5nc4F)c3)CC2)C1` (single isomer, unassigned) [Example D-64, 2-((6-fluoro-1H-pyrrolo[2,3-b]pyridin-5-yl)oxy)-N-(((S)-3-((1r,4S)-4-hydroxy-4-methylcyclohexyl)-5-nitro-3,4-dihydro-2H-benzo[b] [1,4]oxazin-7-yl)sulfonyl)-4-(2-((R or S)-2-(2-isopropylphenyl)pyrrolidin-1-yl)-7-azaspiro[3.5]nonan-7-yl)benzamide]: the IC50 in the assay with RS4;11-BCL-2 F104L cells came out at 25 nM; in the assay with RS4;11-BCL-2 G101V cells it was 1 nM; in the assay on Toledo cells, 1 nM.

For the compound `CC(C)c1ccccc1[C@@H]1CCCN1C1CC2(CCN(c3ccc(C(=O)NS(=O)(=O)c4cc5c(c([N+](=O)[O-])c4)N[C@@H]([C@H]4CC[C@](C)(O)CC4)CO5)c(Oc4cc5cc[nH]c5nc4OC[C@@H]4COCCO4)c3)CC2)C1` (single isomer, unassigned) [Example D-251, 2-((6-(((S)-1,4-dioxan-2-yl)methoxy)-1H-pyrrolo[2,3-b]pyridin-5-yl)oxy)-N-(((S)-3-((1r,4S)-4-hydroxy-4-methylcyclohexyl)-5-nitro-3,4-dihydro-2H-benzo[b][1,4]oxazin-7-yl)sulfonyl)-4-(2-((R or S)-2-(2-isopropylphenyl)pyrrolidin-1-yl)-7-azaspiro[3.5]nonan-7-yl)benzamide], the IC50 in the assay on RS4;11-BCL-2 F104L cells came out at 1 nM; in the assay with RS4;11-BCL-2 G101V cells, 6 nM; in the assay with Toledo cells it was 1 nM.

In the case of `CC(C)c1ccccc1[C@@H]1CCCN1C1CC2(CCN(c3ccc(C(=O)NS(=O)(=O)c4cc5c(c([N+](=O)[O-])c4)N[C@@H]([C@H]4CC[C@](C)(O)CC4)CO5)c(Oc4cc5c(F)c[nH]c5nc4F)c3)CC2)C1` (single isomer, unassigned) [Example D-55, 2-((3,6-difluoro-1H-pyrrolo[2,3-b]pyridin-5-yl)oxy)-N-(((S)-3-((1r,4S)-4-hydroxy-4-methylcyclohexyl)-5-nitro-3,4-dihydro-2H-benzo [b][1,4]oxazin-7-yl)sulfonyl)-4-(2-((R or S)-2-(2-isopropylphenyl)pyrrolidin-1-yl)-7-azaspiro[3.5]nonan-7-yl)benzamide], the IC50 was 19 nM in the assay with RS4;11-BCL-2 F104L cells, 14 nM in the assay on RS4;11-BCL-2 G101V cells and 1 nM in the assay with Toledo cells.

As to `CCOc1nc2[nH]cc(F)c2cc1Oc1cc(N2CCC3(CC2)CC(N2CCC[C@H]2c2ccccc2C(C)C)C3)ccc1C(=O)NS(=O)(=O)c1cc2c(c([N+](=O)[O-])c1)N[C@@H]([C@H]1CC[C@](C)(O)CC1)CO2` (single isomer, unassigned) [Example D-85, 2-((6-ethoxy-3-fluoro-1H-pyrrolo [2,3-b]pyridin-5-yl)oxy)-N-(((S)-3-((1r,4S)-4-hydroxy-4-methylcyclohexyl)-5-nitro-3,4-dihydro-2H-benzo[b][1,4]oxazin-7-yl)sulfonyl)-4-(2-((R or S)-2-(2-isopropylphenyl)pyrrolidin-1-yl)-7-azaspiro[3.5]nonan-7-yl)benzamide], the IC50 turned out to be 5 nM with RS4;11-BCL-2 F104L cells, 28 nM in the assay with RS4;11-BCL-2 G101V cells and 1 nM with Toledo cells.

Take `COc1nc2[nH]cc(F)c2cc1Oc1cc(N2CCC3(CC2)CN([C@H]2CCC[C@H]2c2ccccc2C(C)C)C3)ccc1C(=O)NS(=O)(=O)c1cnc(NC[C@H]2CC[C@](C)(O)CC2)c([N+](=O)[O-])c1` (single isomer, unassigned) [Example A-152, 2-((3-fluoro-6-methoxy-1H-pyrrolo [2,3-b]pyridin-5-yl)oxy)-N-((6-(((1r, 4r)-4-hydroxy-4-methylcyclohexyl)methyl)amino)-5-nitropyridin-3-yl) sulfonyl)-4-(2-((1S,2S or 1R,2R)-2-(2-isopropylphenyl)cyclo-pentyl)-2,7-diazaspiro[3.5]nonan-7-yl) benzamide]: the IC50 in the assay on RS4;11-BCL-2 F104L cells came out at 9 nM; in the assay with RS4;11-BCL-2 G101V cells, 40 nM; with Toledo cells it was 1 nM.

Consider `COC(C)COc1nc2[nH]cc(F)c2cc1Oc1cc(N2CCC3(CC2)CN([C@H]2CCC[C@H]2c2ccccc2C(C)C)C3)ccc1C(=O)NS(=O)(=O)c1cc2c(c([N+](=O)[O-])c1)N[C@@H]([C@H]1CC[C@](C)(O)CC1)CO2` (single isomer, unassigned) [Example D-241, 2-((3-fluoro-6-(2-methoxypropoxy)-1H-pyrrolo[2,3-b]pyridin-5-yl)oxy)-N-(((S)-3-((1r,4S)-4-hydroxy-4-methylcyclohexyl)-5-nitro-3,4-dihydro-2H-benzo[b][1,4]oxazin-7-yl)sulfonyl)-4-(2-((1S,2S or 1R,2R)-2-(2-isopropylphenyl)cyclopentyl)-2,7-diazaspiro[3.5]nonan-7-yl)benzamide], for which the IC50 in the assay on RS4;11-BCL-2 F104L cells came to 1 nM; in the assay with RS4;11-BCL-2 G101V cells it was 4 nM.

The values are drawn from patent US20230159527A1, “COMPOUNDS AS BCL-2 INHIBITORS” (Fochon Pharmaceuticals, Ltd., priority 2020, published 2023).
